We go through five compounds from publication PMC10141580, “Cyclic Dichalcogenides Extend the Reach of Bioreductive Prodrugs to Harness Thiol/Disulfide Oxidoreductases: Applications to seco-Duocarmycins Targeting the Thioredoxin System” (ACS Central Science, 2023).

One series has as its system mouse. Put plainly: Tolerability for repeated dose administration in vivo (summary). To be noted: for remarks: repeated dose administration; for well-tolerated dose: weekly or twice-weekly administration.
The subject of the next series is MEF TrxR1-ko cells. The experiment in a line: Resazurin cytotoxicity assay, MEF TrxR1 knockout, 72 h. The following applies: MEF TrxR1-ko vs wt (fl/fl). On the technique in general: The colour change of resazurin is a common sign of viable cells or microbes.
In a further series the test system is Balb/c mice. The experiment in a line: Moderate repeated dosing tolerability study. The series is classed as in vivo. To be noted: once weekly.
A further series relates to 4T1 murine breast cancer. Put plainly: 4T1 orthotopic breast cancer efficacy study. To be noted: 4T1 in Balb/c mice; CBI prodrugs 3 mg/kg. The series is classed as in vivo. From the text:
(§1) We then moved to in vivo anticancer efficacy trials of these prodrugs. […] As one model we chose the syngeneic murine breast cancer 4T1, implanted orthotopically (at the native tissue site) into the fat pad of immunocompetent Balb/c mice (i.e., offering a realistic immune system and tumor microenvironment). This model gives rapid, aggressive tumor growth.[52] As a second model, we chose to xenograft human BxPC-3 pancreatic adenocarcinoma cells into immunodeficient hosts. This is a slower-growing model, with low metastasis, that can be more resistant to traditional antimitotic therapy.[53],[54] Mice were implanted, randomized once tumors reached 100–150 mm^3 volume, and treated once or twice weekly with prodrug or control compounds typically at 3 mg/kg (8–12 animals per condition, Figure 10a). Tumors were measured by caliper during the assay and weighed at termination.
7. 2. in vivo efficacy mouse studies
4T1 efficacy study BxPC-3 efficacy study a Absolute tumour volumes b Absolute tumour volumes […]
days after tumor implantation days after tumor implantation c Relative tumour volumes d Relative tumour volumes […]
e RTV! fi"al day of followu# f ex viv tumour weights g RTV! fi"al day of followu# h ex viv tumour weights (. mice remain in all *roups) (for animals left at day 31)(all *roups have statistical power)(day "2/ all animals left) […]
vehicle(1x)(1x)(1x) (2x)(2x) […]
P-##"0-#$%-&'%P-!!"0-#$%-&'%P-!!"0-#$%-()%P-!!"0-#$%-&'% %rinotecan %rinotecan P-##"0-#$%-&'%P-!!"0-#$%-()%P-!!"0-#$%-&'%P-!!"0-#$%-&'% P-!!"0-#$%-&'% P-!!"0-#$%-&'% […]
i Body weights $ Body weights […]
implant in Balb/c mice, 8 mice per group; (b, d,g,h,j): BxPC-3 subcutaneous xenograft in NMRi mice, 8 mice per […]
treatment (m e d ia n); (e,g) in vivo caliper measurement of relative tum or volumes at final day of followup [last day when all mice in all groups remain in the study] […]
tumor weights at termination of study (only mice not terminated on ethical grounds before the indicated days were harvested); (i,j) Bodyweights (means).
(BxPC-3 study); dotted vertical lines indicate days of [potential] treatment.

Series [1] concerns human BxPC-3 pancreatic adenocarcinoma. The experiment in a line: BxPC-3 xenograft efficacy study. Format: in vivo, athymic nu/nu NMRI mice.
Text: as §1
Finally, we tested P-SS60-CBI-TMI in the slower-growing pancreatic cancer model BxPC-3 in athymic NMRI mice (8 animals per group). […]

Procedure for Balb/c mice: Next, a moderate repeated dosing study in Balb/c mice (3 animals per group) tested the importance of solubilizing the prodrugs.
Methods for in vivo animal studies
All in vivo studies were conducted as contract research together with React ionBiology Eur ope G mbH (Freiburg,
Germany), EPO – Experimental Pharmacology & Oncology GmbH (Berlin, Germany); Bient a/ Enam ine Lt d. (Kyiv,
Ukraine) and Leit at – Managing Technologies (Barcelona, Spain), adhering to the respective animal welfare
Mice were kept in individually ventilated cages at constant temperature (22±2 °C, air-conditioned) and humidity (45
– 65%), under optimum hygienic conditions with 10 – 15 air changes per hour. A cycle of 12 h artificial fluorescent
light ning and 12 h darkness was applied , and animal behavior was monitored daily throughout the studies. The
animals received food and water ad libit um.
To evaluate toxicity of selected compounds, dose level selection studies within dose range from 0.1 mg/kg to
10 mg/kg were performed by intravenous administration into Balb /c mice. Each dose for each tested compound
was administered in one mouse.
changes and clinical signs of gross toxicity three tim es per week for 21 consecutive days of post-dosing period.
After the first week of observation without adverse events, two doses for each test compound were selected as
tolerated. These two doses were tested in two additional mice for confirmation of toler ability. Additional animals
consecutive days of post-dosing period. Toxicity of repeated administrations was tested wit h t hr ee repeat ed pr e-
selected doses at a dosing interval of 7 days. Mortality, body weight changes, and clinical signs of gross toxicity
were monitored after each drug administration and three times per week for 21 consecutive days after the first
compound administration. Bleed ing with subsequent hematological tests, clinical chemistry parameters analysis
(ALT, AST, ALP, LDH, creatine kinase, creatinine, urea, cholesterol, and triglycerides), and necropsy with
macroscopic inspection were performed on the terminal day of the repeated dosing-regime.
To test tolerability of selected compounds in vivo, female BALB/c mice were randomized by weight into seven
groups of t hree animals.
Text for MEF TrxR1-ko cells: A TrxR1 knockout (ko) in mouse embryonic fibroblast (MEF) cells is, however, accessible. We compared its prodrug sensitivity to that of its parental line[49] (wild-type, wt), on the basis that TrxR1-ko should leave most Trx1 in its oxidized state (only a fraction of it can be maintained in the reduced state by alternative reductants such as Grx2),[50] so prodrugs relying on the cytosolic thioredoxin system (Trx1/TrxR1) for most of their bioreductive activation in long-term assays will have lower potency in TrxR1-ko cells.
MEF cells (ko vs. wt) we r e treated with prodrugs of the CBI-TMI and CBI-AZI series for
72 h at concentrations from 10 pm t o 3 0 µM at 27 incremental single concentrations depending on expected
potencies of the constructs. Data from at least 3 individual experiments was combined (no error bars shown for
clarity) for each cell line.

As to `COc1cc2cc(C(=O)N3C[C@@H](CCl)c4c3cc(OC(=O)N3CCN(C(=O)CCC(=O)N5CCN(C)CC5)[C@H]5CSSC[C@H]53)c3ccccc43)[nH]c2c(OC)c1OC` [P-SS66C-CBI-TMI], in the series on mouse, the remarks entry is reported as “well tolerated” and the “well-tolerated dose” value was determined as 3 mg/kg. Moreover, the “fold change of potency wt → ko” value in the series with MEF TrxR1-ko cells is 3 ×.

For `COc1cc2cc(C(=O)N3CC(CCl)c4c3cc(OC(=O)N3CCN(C)C5CSSCC53)c3ccccc43)[nH]c2c(OC)c1OC` (mixture of isomers) [Me-SS66C-CBI-TMI], in the series with mouse, the remarks result is given as “well tolerated” and the “well-tolerated dose” value is on record as 3 mg/kg. For the same compound, the “fold change of potency wt → ko” value in the series on MEF TrxR1-ko cells was 4 ×.

On to `COc1cc2cc(C(=O)N3C[C@@H](CCl)c4c3cc(OC(=O)N(CCC(=O)N3CCN(C)CC3)[C@H]3CCSSC3)c3ccccc43)[nH]c2c(OC)c1OC` [P-SS60-CBI-TMI], for which the “outcome of repeated dosing at 3 mg/kg” value in the series with Balb/c mice was “tolerated”. Also, the “effect on tumor growth” value with 4T1 murine breast cancer is listed as “maintained statistically significant tumor suppression until study termination”. In series [1] (BxPC-3, 3 mg/kg vs irinotecan 10 mg/kg), the “tumor suppression vs irinotecan” value is recorded as “almost identical tumor suppression”. For the same compound, the “tumor growth rate suppression” value in series [1] (BxPC-3, once-weekly 3 mg/kg, over 4 weeks) was “ca. 70%”. Further, in the series on mouse, the remarks entry is on record as “well tolerated” and the “well-tolerated dose” value is recorded as 3 mg/kg.

Turning to `COc1cc2cc(C(=O)N3C[C@@H](CCl)c4c3cc(OC(=O)N(CCC(=O)N3CCN(C)CC3)C3CCCCC3)c3ccccc43)[nH]c2c(OC)c1OC` [P-CC60-CBI-TMI], the “effect on tumor growth” value in the series with 4T1 murine breast cancer is “delayed tumor growth in the first week of treatment”. Further, in the series with mouse, the remarks result was “well tolerated” and the “well-tolerated dose” value is 3 mg/kg.

As to `COc1cc2cc(C(=O)N3CC(CCl)c4c3cc(OC(=O)N3CCN(C)C5CSSCC53)c3ccccc43)[nH]c2c(OC)c1OC` (mixture of isomers) [Me-SS66T-CBI-TMI], in the series with mouse, the remarks entry is “well tolerated” and the “well-tolerated dose” value worked out at 3 mg/kg. Also, in the series with MEF TrxR1-ko cells, the “fold change of potency wt → ko” value is reported as 2 ×.
